Measurements reported in PubChem BioAssay AID248 (DTP/NCI, 2004).
“And” between values parts separate entries of the source, which are not always exact repeats. Equal entries are not always repeated. Inconclusive results and toxic doses are left out. Rule as the data show it: active = T/C of 150% or more; inactive = T/C below 125%.

System: L1210 leukemia ip in BDF1 mice, survival T/C
Experiment: NCI In Vivo Anticancer Drug Screen. Data for tumor model L1210 Leukemia (intraperitoneal) in B6D2F1 (BDF1) mice
Conditions: endpoint: mean survival time, higher = longer survival
Outline: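 In this screen, tumor-bearing mice given compound are compared to those given vehicle, and their survival values are reported as a treated-to-control quotient.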

[1] = dose: 5.0 mg/kg/injection, schedule: Q01DX001 (ip), vehicle: saline
[2] = dose: 10.0 mg/kg/injection, schedule: Q01DX001 (ip), vehicle: saline
[3] = dose: 100.0 mg/kg/injection, schedule: Q01DX001 (ip), vehicle: saline
[4] = dose: 200.0 mg/kg/injection, schedule: Q01DX001 (ip), vehicle: saline
[5] = dose: 400.0 mg/kg/injection, schedule: Q01DX001 (ip), vehicle: saline
[6] = dose: 100.0 mg/kg/injection, schedule: Q01DX009 (ip), vehicle: Klucel (hydroxypropylcellulose) (HPC)
[7] = dose: 200.0 mg/kg/injection, schedule: Q01DX009 (ip), vehicle: Klucel (hydroxypropylcellulose) (HPC)
[8] = dose: 400.0 mg/kg/injection, schedule: Q01DX009 (ip), vehicle: Klucel (hydroxypropylcellulose) (HPC)
[9] = dose: 100.0 mg/kg/injection, schedule: Q04DX003 (ip), vehicle: Klucel (hydroxypropylcellulose) (HPC)
[10] = dose: 200.0 mg/kg/injection, schedule: Q04DX003 (ip), vehicle: Klucel (hydroxypropylcellulose) (HPC)
[11] = dose: 400.0 mg/kg/injection, schedule: Q04DX003 (ip), vehicle: Klucel (hydroxypropylcellulose) (HPC)
[12] = dose: 25.0 mg/kg/injection, schedule: Q01DX009 (ip), vehicle: saline
[13] = dose: 50.0 mg/kg/injection, schedule: Q01DX009 (ip), vehicle: saline
[14] = dose: 100.0 mg/kg/injection, schedule: Q04DX003 (ip), vehicle: saline
[15] = dose: 200.0 mg/kg/injection, schedule: Q04DX003 (ip), vehicle: saline
[16] = dose: 400.0 mg/kg/injection, schedule: Q04DX003 (ip), vehicle: saline
[17] = dose: 100.0 mg/kg/injection, schedule: Q04DX002 (ip), vehicle: Klucel (hydroxypropylcellulose) (HPC)
[18] = dose: 100.0 mg/kg/injection, schedule: Q04DX003 (ip), vehicle: saline with Tween-80
[19] = dose: 200.0 mg/kg/injection, schedule: Q04DX003 (ip), vehicle: saline with Tween-80
[20] = dose: 400.0 mg/kg/injection, schedule: Q04DX003 (ip), vehicle: saline with Tween-80
[21] = dose: 50.0 mg/kg/injection, schedule: Q01DX009 (ip), vehicle: saline with Tween-80
[22] = dose: 100.0 mg/kg/injection, schedule: Q01DX009 (ip), vehicle: saline with Tween-80
[23] = dose: 200.0 mg/kg/injection, schedule: Q01DX009 (ip), vehicle: saline with Tween-80

Measured: T/C

N#CCC(C#N)C1C=CCC1 (configuration not stated)
inactive: [1] 97 % of control | [2] 97 % of control | dose: 12.5 mg/kg/injection, schedule: Q04DX003 (ip), vehicle: saline with Tween-80 98 % of control

O=C(CNC(=O)c1ccccc1)Nc1ccccc1
inactive: [3] 105 % of control | [4] 97 % of control | [5] 97 % of control

CCCCCCCCCC(=O)N/N=C/c1c[nH]c2ccccc12
inactive: [6] 95 % of control | [7] 114 % of control | [8] 100 % of control

CCN(CC)CCCC(C)Nc1cc(/C=C/c2ccc(Cl)cc2)nc(/C=C/c2ccc(Cl)cc2)n1 (configuration not stated)
inactive: dose: 50.0 mg/kg/injection, schedule: Q04DX003 (ip), vehicle: Klucel (hydroxypropylcellulose) (HPC) 96 % of control | [3] 96 % of control | [9] 96 % of control | [4] 98 % of control | [10] 98 % of control

O=C(NCCCl)NC1CCCCCCCCCCC1
inactive: [6] 98 % of control | [9] 100 % of control | [7] 97 % of control | [10] 102 % of control | [8] 89 % of control | [11] 102 % of control

Nc1nnc(SCc2ccccc2)s1
inactive: [6] 92 % of control | [7] 105 % of control | [8] 97 % of control

N=c1ccc2nc3ccc(N)cc3sc-2c1
inactive: dose: 6.25 mg/kg/injection, schedule: Q01DX009 (ip), vehicle: saline 104 % of control | dose: 6.25 mg/kg/injection, schedule: Q04DX003 (ip), vehicle: saline 100 % of control | dose: 12.5 mg/kg/injection, schedule: Q01DX009 (ip), vehicle: saline 106 % of control | dose: 12.5 mg/kg/injection, schedule: Q04DX003 (ip), vehicle: saline 96 % of control | [12] 112 % of control | dose: 25.0 mg/kg/injection, schedule: Q04DX003 (ip), vehicle: saline 107 % of control | [13] 98 % of control | dose: 50.0 mg/kg/injection, schedule: Q04DX003 (ip), vehicle: saline 105 % of control | [14] 105 % of control

CCO/C=N/c1onc(C)c1C#N
inactive: dose: 100.0 mg/kg/injection, schedule: Q04DX003 (ip), vehicle: carboxymethylcellulose (CMC) 102 % of control | dose: 200.0 mg/kg/injection, schedule: Q04DX003 (ip), vehicle: carboxymethylcellulose (CMC) 100 % of control | dose: 400.0 mg/kg/injection, schedule: Q04DX003 (ip), vehicle: carboxymethylcellulose (CMC) 90 % of control

[O-][n+]1ccnc2ccccc21
inactive: [14] 100 % of control | [15] 108 % of control | [16] 110 % of control

[Cl][Sn]([Cl])([c]1ccccc1)[c]1ccccc1.c1ccncc1
inactive: [12] 111 % of control | [13] 114 % of control | dose: 100.0 mg/kg/injection, schedule: Q01DX009 (ip), vehicle: saline 96 % of control

O=C(O)c1ccccc1N=Cc1ccccc1Cl
inactive: dose: 100.0 mg/kg/injection, schedule: Q04DX002 (ip), vehicle: saline with Tween-80 101 % of control | dose: 200.0 mg/kg/injection, schedule: Q04DX002 (ip), vehicle: saline with Tween-80 108 % of control | dose: 400.0 mg/kg/injection, schedule: Q04DX002 (ip), vehicle: saline with Tween-80 93 % of control

CC(C)OC(=O)c1ccc(N)cc1S(N)(=O)=O
inactive: dose: 100.0 mg/kg/injection, schedule: Q01DX001 (ip), vehicle: other 106 % of control

O=C(NC(=O)c1ccccc1)Nc1cccc2ccccc12
inactive: dose: 100.0 mg/kg/injection, schedule: Q04DX002 (ip), vehicle: gum acacia 97 % of control | dose: 200.0 mg/kg/injection, schedule: Q04DX002 (ip), vehicle: gum acacia 90 % of control | dose: 400.0 mg/kg/injection, schedule: Q04DX002 (ip), vehicle: gum acacia 90 % of control

Cc1ccc(Nc2c3ccccc3nc3ccccc23)cc1C
inactive: dose: 25.0 mg/kg/injection, schedule: Q01DX009 (ip), vehicle: Klucel (hydroxypropylcellulose) (HPC) 94 % of control | dose: 50.0 mg/kg/injection, schedule: Q01DX009 (ip), vehicle: Klucel (hydroxypropylcellulose) (HPC) 91 % of control | [6] 102 % of control | [17] 100 % of control

COc1cccc(C=Nc2ccc(Br)cc2)c1O.COc1cccc(C=Nc2ccc(Br)cc2)c1O.[Co]
inactive: [14] 98 % of control | [15] 98 % of control | [16] 98 % of control

Cc1cnc(Cl)c(Br)c1
inactive: [18] 100 % of control | [19] 102 % of control | [20] 98 % of control

CC[P+]1(c2ccccc2)CCCc2ccc3ccccc3c21 (configuration not stated)
inactive: dose: 6.25 mg/kg/injection, schedule: Q01DX009 (ip), vehicle: saline with Tween-80 117 % of control

CCCCOc1ccc(/C=N/NC(=O)CNC(=O)Nc2cccc([N+](=O)[O-])c2)cc1
inactive: [21] 96 % of control | [22] 96 % of control | [23] 93 % of control

OC(CN1CCCCC1)c1ccc2oc3ccccc3c2c1 (configuration not stated)
inactive: [17] 110 % of control | dose: 200.0 mg/kg/injection, schedule: Q04DX002 (ip), vehicle: Klucel (hydroxypropylcellulose) (HPC) 92 % of control

CCN(CC)CCCC(C)Nc1ccc(NC(C)CCCN(CC)CC)c2c1C(=O)c1ccccc1C2=O (configuration not stated)
inactive: [12] 96 % of control | dose: 25.0 mg/kg/injection, schedule: Q04DX002 (ip), vehicle: saline 92 % of control | [13] 89 % of control | dose: 50.0 mg/kg/injection, schedule: Q04DX002 (ip), vehicle: saline 103 % of control | dose: 100.0 mg/kg/injection, schedule: Q04DX002 (ip), vehicle: saline 96 % of control and 98 % of control

O=S(=O)(O)c1ccc(N=Nc2ccc(O)cc2)cc1
inactive: dose: 25.0 mg/kg/injection, schedule: Q01DX009 (ip), vehicle: saline with Tween-80 104 % of control | [21] 102 % of control | [6] 88 % of control | [22] 101 % of control | [9] 92 % of control and 98 % of control | [18] 107 % of control | [7] 88 % of control | [10] 92 % of control and 102 % of control | [8] 90 % of control | [11] 97 % of control

CCNc1ncnc2c1cnn2C
inactive: [3] 95 % of control | [4] 103 % of control | [5] 114 % of control

CC1(C)C2CCC(=O)OC1CC2 (configuration not stated)
inactive: [1] 116 % of control | [2] 100 % of control | dose: 20.0 mg/kg/injection, schedule: Q01DX001 (ip), vehicle: saline 86 % of control | dose: 40.0 mg/kg/injection, schedule: Q01DX001 (ip), vehicle: saline 108 % of control

COc1ccc(C(CCl)(CCl)c2ccc(OC)c(C)c2)cc1C
inactive: [22] 90 % of control | [18] 100 % of control | [23] 96 % of control | [19] 94 % of control | dose: 400.0 mg/kg/injection, schedule: Q01DX009 (ip), vehicle: saline with Tween-80 86 % of control | [20] 92 % of control
